Here are results for two molecules from US20250235444A1, “COMPOSITION FOR PREVENTING OR TREATING VALVULAR CALCIFICATION” (MOKPO NATIONAL UNIVERSITY INDUSTRY-ACADEMIA COOPERATION …, priority 2022, published 2025).

Assay [1] deals with porcine valvular interstitial cells. The assay is described as follows: Calcification of porcine valvular interstitial cells induced by NaH2PO4 (PCM), Alizarin red staining and CPC analysis. The assay is classed as cell-based. The note with it: pro-calcifying medium with 2 mM NaH2PO4, 10 days. The method, then:
(§1) To isolate porcine valvular interstitial cells, porcine heart valves were treated with collagenase for 15 minutes, after which endothelial cells were removed and cultured again for 24 hours. The cells obtained through centrifugation are valvular interstitial cells and were cultured in DMEM (high-glucose, Gibco) medium containing 0.1% amphotericin B, 1% penicillin-streptomycin, and 5% FBS.
To induce calcification, cells were seeded at a density of 1×10^4/ml in a 96-well culture vessel, and calcification was induced for a total of 10 days. […]
To quantify Alizarin Red stain, after washing twice with PBS, it was fixed with cold 70% ethanol at 4° C. for 1 hour, and after washing with dH2O, the sample was treated with 10% CPC (cetylpyridinium chloride, Sigma-Aldrich) for 1 hour (shaken and in the dark), transferred to a new measuring container, and measured for absorbance at 550 nm.
Interstitial cells were isolated from porcine heart valves and the inhibitory effect of paquinimod or tasquinimod on valvular calcification was confirmed according to the concentration. Porcine valve-derived cells were induced to calcify by NaH2PO4, and the degree of valvular calcification was measured after treatment with paquinimod or tasquinimod at different concentrations under the same conditions.

Assay [2] concerns RUNX2 (Runt-related transcription factor2). Description: Western blot analysis of calcification marker RUNX2 in calcification-induced valvular interstitial cells. Format: cell-based, porcine. The note with it: compared to the calcification-induced experimental group; calcification induced for 10 days; FIG. 3. The method, then:
as §1
(§2) To induce calcification, cells were seeded at a density of 1×10^4/ml in a 96-well culture vessel, and calcification was induced for a total of 10 days. Control medium (CM) used DMEM containing 0.1% amphotericin B, 1% penicillin-streptomycin, and 5% FBS and the pro-calcifying medium (PCM) was a control medium with 2 mM NaH2PO4 added. The medium was replaced every 2 days.
(§3) To observe if anti-calcification substances inhibit calcification, 10 uM or 100 uM paquinimod or 10 uM tasquinimod were treated, and 10% DMSO (Sigma-Aldrich) was treated as a control, and then cultured in a cell incubator at 37° C. with a 5% CO2 concentration.
(§4) After seeding cells at 5×10^4/mL in a 6-well plate, calcification was induced for a total of 10 days. […]
(§5) To lyse the cells, 1×RIPA buffer was added to each well and lysed for 10 minutes. […] Protein quantification of the obtained cell lysates was measured using Bio-Rad DC protein reagent. […]
A general note: A western blot detects proteins with antibodies after separation by electrophoresis.

Assay [3] relates to Osteopontin (OPN). Description: Western blot analysis of calcification marker osteopontin in calcification-induced valvular interstitial cells. Format: cell-based, porcine. The note with it: compared to the calcification-induced experimental group; calcification induced for 10 days; FIG. 3. The method, then: as §1, §2, §3, §4, §5

With `CCc1cccc2c1c(O)c(C(=O)N(CC)c1ccccc1)c(=O)n2C` [paquinimod], in assay [1] (10 uM or more of paquinimod (10 uM or 100 uM), FIG. 1), the “degree of valvular calcification (Alizarin red staining and CPC analysis)” value is on record as “inhibition of valvular calcification in a concentration-dependent manner”. In assay [2], the “expression of RUNX2 (Western blot)” value was “significantly reduced”. In assay [3], the “expression of osteopontin (Western blot)” value is “significantly reduced”.
Consider `COc1cccc2c1c(O)c(C(=O)N(C)c1ccc(C(F)(F)F)cc1)c(=O)n2C` [tasquinimod], for which the “degree of valvular calcification” value in assay [1] (10 uM tasquinimod, FIG. 2) is “had an inhibitory effect on valvular calcification”.
